Values quoted from earlier work as cited in patent US20030232367A1, “Differentially expressed genes involved in angiogenesis, the proteins encoded thereby, and methods of using the same” (priority 2002, published 2003).

Tested on: vascular endothelial cell proliferation
Conditions: endothelial vs tumor cell proliferation (Ingber et al. 1990)

With `CO[C@@H]1[C@H](OC(=O)NC(=O)CCl)CC[C@]2(CO2)[C@H]1[C@@]1(C)O[C@@H]1CC=C(C)C` [AGM-1470] as the compound, how does the “half-maximal inhibition of vascular endothelial cell proliferation at lower concentration than tumor cell proliferation” value read?
The value was 4 logs.
